The assay deals with 11β-HSD1 (Homo sapiens (Human), UniProt P28845). Nature of the assay: Biological Test Example 4: HTRF assay of 11β-HSD1 in human liver microsomes. Type of assay: biochemical. Particulars: HTRF cortisol detection. The method, then: In vitro inhibition of 11β-HSD1 by test compounds is determined with HTRF (Homogeneous Time-Resolved Fluorescence) technology (cisbio international, France) detecting cortisol generated from […] by human liver microsomes. […] Cortisol generated in the reaction is then detected with a competitive immunoassay, involving two HTRF conjugates: cortisol linked to XL665 and anti-cortisol antibody labeled with Europium cryptate. The incubation period for detection reaction is typically 2 hours. […] The ratio of the two emission signals is then calculated (Em665*10000/Em615). […] Each assay also contains a calibration curve with cortisol to transform the fluorescent data into cortisol concentrations. Percent inhibition (% CTL) of each compound is determined relative to the carbenoxolone signal and IC50 curves are generated.
11β-HSD1, sequence (P28845 whole entry): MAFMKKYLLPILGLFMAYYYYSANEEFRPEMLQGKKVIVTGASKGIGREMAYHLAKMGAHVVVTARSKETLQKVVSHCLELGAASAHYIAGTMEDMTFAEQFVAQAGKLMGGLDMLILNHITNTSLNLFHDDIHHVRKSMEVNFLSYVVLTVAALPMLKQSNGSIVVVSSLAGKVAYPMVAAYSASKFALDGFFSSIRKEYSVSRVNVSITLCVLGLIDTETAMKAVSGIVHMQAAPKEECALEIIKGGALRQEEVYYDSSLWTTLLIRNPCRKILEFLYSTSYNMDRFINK
In general terms: In TR-FRET formats the signal depends on donor and acceptor labels being close together.

Turning to `N#Cc1ccc(=O)n([C@@H]2CCN(C(=O)OC3C4CC5CC3CC(O)(C5)C4)C2)c1` (stereo partly drawn) [Example 77, (R)-3-(5-Cyano-2-oxo-2H-pyridin-1-yl)-pyrrolidine-1-carboxylic acid 5-hydroxy-adamantan-2-yl ester], the IC50 (in general, the midpoint of a concentration-inhibition curve) was greater than 10 µM.
For `N#Cc1ccn([C@@H]2CCN(C(=O)OC3C4CC5CC3CC(O)(C5)C4)C2)c(=O)c1` (single isomer, unassigned; isomer 1) [Example 78 Isomer 1], the IC50 is greater than 10 µM.

Source of the values: patent US9163012B2, “Carbamate and urea inhibitors of 11β-hydroxysteroid dehydrogenase 1” (Vitae Pharmaceuticals, Inc., priority 2009, dated 2015).
